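Interpolation was linear, between the two tested concentrations surrounding the appropriate level; five concentrations were tested over 48 hours in 96-well plates. GI50: concentration for 50% inhibition of growth. TGI: concentration producing complete growth inhibition.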
Key:
Assay in all cases: growth of human tumour cells (NCI), 48 h
[1] = system: A498 renal
[2] = system: A549 NSCLC
[3] = system: ACHN renal
[4] = system: BT-549 breast
[5] = system: CAKI-1 renal
[6] = system: CCRF-CEM leukemia
[7] = system: COLO 205 colon
[8] = system: DU-145 prostate
[9] = system: EKVX NSCLC
[10] = system: HCC-2998 colon
[11] = system: HCT-15 colon
[12] = system: HL-60(TB) leukemia
[13] = system: HOP-62 NSCLC
[14] = system: HOP-92 NSCLC
[15] = system: HS 578T breast
[16] = system: IGROV1 ovarian
[17] = system: K-562 leukemia
[18] = system: KM12 colon
[19] = system: LOX IMVI melanoma
[20] = system: MALME-3M melanoma
[21] = system: MCF7 breast
[22] = system: MDA-MB-231 breast
[23] = system: MDA-MB-435
[24] = system: MOLT-4 leukemia
[25] = system: NCI-H226 lung
[26] = system: NCI-H460 lung
[27] = system: NCI-H522 lung
[28] = system: NCI/ADR-RES ovarian
[29] = system: OVCAR-3 ovarian
[30] = system: OVCAR-4 ovarian
[31] = system: OVCAR-5 ovarian
[32] = system: OVCAR-8 ovarian
[33] = system: PC-3 prostate
[34] = system: RPMI-8226 leukemia
[35] = system: RXF 393 renal
[36] = system: SF-268 CNS
[37] = system: SF-295 CNS
[38] = system: SF-539 CNS
[39] = system: SK-MEL-2 melanoma
[40] = system: SK-MEL-28 melanoma
[41] = system: SK-MEL-5 melanoma
[42] = system: SK-OV-3 ovarian
[43] = system: SN12C renal
[44] = system: SNB-19 CNS
[45] = system: SNB-75 CNS
[46] = system: SR leukemia
[47] = system: SW-620 colon
[48] = system: T-47D breast
[49] = system: TK-10 renal
[50] = system: U251 CNS
[51] = system: UACC-257 melanoma
[52] = system: UACC-62 melanoma

Compound: COc1cccc(CNCCN2C(=O)c3ccc4c5c(ccc(c35)C2=O)C(=O)N(CCNCc2cccc(OC)c2)C4=O)c1
- GI50 [1]: 14.8 µM
- TGI [1]: 28.9 µM
- GI50 [2]: 2.49 µM
- TGI [2]: 5.83 µM
- GI50 [3]: 6.28 µM
- TGI [3]: 27.5 µM
- GI50 [4]: 2.43 µM
- TGI [4]: 6.12 µM
- GI50 [5]: 2.61 µM
- TGI [5]: 8.27 µM
- GI50 [6]: 3.46 µM
- TGI [6]: 13.5 µM
- GI50 [7]: 1.53 µM
- TGI [7]: 2.95 µM
- GI50 [8]: 3.94 µM
- TGI [8]: 14.9 µM
- GI50 [9]: 15.7 µM
- TGI [9]: 35.4 µM
- GI50 [10]: 5.21 µM
- TGI [10]: 19.1 µM
- GI50 [11]: 2.1 µM
- TGI [11]: 4.82 µM
- GI50 [12]: 2.56 µM
- TGI [12]: 4.99 µM
- GI50 [13]: 15 µM
- TGI [13]: 30.8 µM
- GI50 [14]: 18.9 µM
- TGI [14]: 41.2 µM
- GI50 [15]: 19 µM
- TGI [15]: 52.8 µM
- GI50 [16]: 2.36 µM
- TGI [16]: 6.34 µM
- GI50 [17]: 3.03 µM
- TGI [17]: 8.52 µM
- GI50 [18]: 1.75 µM
- TGI [18]: 3.93 µM
- GI50 [19]: 1.79 µM
- TGI [19]: 3.53 µM
- GI50 [20]: 1.8 µM
- TGI [20]: 3.76 µM
- GI50 [21]: 1.81 µM
- TGI [21]: 4.39 µM
- GI50 [22]: 2.39 µM
- TGI [22]: 6.61 µM
- GI50 [23]: 1.84 µM
- TGI [23]: 3.48 µM
- GI50 [24]: 14.7 µM
- TGI [24]: 47.9 µM
- GI50 [25]: 34 µM
- TGI [25]: > 100 µM
- GI50 [26]: 1.96 µM
- TGI [26]: 4.33 µM
- GI50 [27]: 1.81 µM
- TGI [27]: 3.46 µM
- GI50 [28]: 2.99 µM
- TGI [28]: > 100 µM
- GI50 [29]: 2.25 µM
- TGI [29]: 5.93 µM
- GI50 [30]: 1.4 µM
- TGI [30]: 2.71 µM
- GI50 [31]: 21.1 µM
- TGI [31]: 49.6 µM
- GI50 [32]: 2.15 µM
- TGI [32]: 4.85 µM
- GI50 [33]: 3.87 µM
- TGI [33]: 21.6 µM
- GI50 [34]: 2.84 µM
- TGI [34]: 7.45 µM
- GI50 [35]: 2.16 µM
- TGI [35]: 7.58 µM
- GI50 [36]: 4.09 µM
- TGI [36]: 27 µM
- GI50 [37]: 1.82 µM
- TGI [37]: 3.88 µM
- GI50 [38]: 1.79 µM
- TGI [38]: 3.4 µM
- GI50 [39]: 1.89 µM
- TGI [39]: 3.85 µM
- GI50 [40]: 2.22 µM
- TGI [40]: 5.2 µM
- GI50 [41]: 1.52 µM
- TGI [41]: 2.86 µM
- GI50 [42]: 19.1 µM
- TGI [42]: 35.5 µM
- GI50 [43]: 1.67 µM
- TGI [43]: 3.24 µM
- GI50 [44]: 2.88 µM
- TGI [44]: 10.4 µM
- GI50 [45]: 11.2 µM
- TGI [45]: 28 µM
- GI50 [46]: 0.332 µM
- TGI [46]: 2.57 µM
- GI50 [47]: 2.15 µM
- TGI [47]: 5.32 µM
- GI50 [48]: 2.05 µM
- TGI [48]: 5.3 µM
- GI50 [49]: 1.85 µM
- TGI [49]: 4.31 µM
- GI50 [50]: 2.42 µM
- TGI [50]: 5.16 µM
- GI50 [51]: 2.09 µM
- TGI [51]: 3.82 µM
- GI50 [52]: 1.9 µM
- TGI [52]: 4 µM
